{"source": "patent US9012500B2", "about": "“PKC-ε activator” (Nishizaki Bioinformation Research Institute, priority 2010, dated 2015)", "system": "dopamine release from the striatum", "assay": "Dopamine release from rat striatum sections (HPLC)", "assay_type": "cell-based"}
{"molecule": "CCCCC[C@@H]1C[C@@H]1C[C@@H]1C[C@H]1CCCCCCCC(=O)O", "note": "[α,β-DCP-LA, 8-[(1R,2S)-2-{(1R,2R)-2-pentylcyclopropylmethyl}-cyclopropyl]octanoic acid]", "values": [{"measurement": "dopamine release stimulation action compared to the other optical isomers", "setting": "100 nM, in the presence of nicotine (1 μM), FIG. 10", "result": "remarkably high"}, {"measurement": "concentration at which dopamine release stimulation action reaches maximum (bell-shaped)", "setting": "rat striatum sections, FIG. 11", "result": "about 250 nM"}, {"measurement": "dopamine release, substance alone vs non-treated group", "setting": "treated alone, FIG. 12", "result": "did not show a remarkable difference"}, {"measurement": "effect on dopamine release caused by nicotine", "setting": "with nicotine (1 μM), FIG. 12", "result": "remarkably enhanced"}]}
